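Cells were grown in 96-well plates and exposed to each compound for 48 hours at five concentrations; endpoints were interpolated linearly between bracketing concentrations, or set to the highest concentration if not reached. TGI denotes the concentration required for complete inhibition of growth.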
How the values were obtained:
Experiment in all cases: NCI tumour cell line growth inhibition, 48 h
[1] = test system: UACC-62 melanoma
[2] = test system: SNB-75 CNS
[3] = test system: OVCAR-8 ovarian
[4] = test system: NCI-H522 lung
[5] = test system: 786-0 renal
[6] = test system: A498 renal
[7] = test system: HOP-18 NSCLC
[8] = test system: COLO 205 colon
[9] = test system: MALME-3M melanoma
[10] = test system: SF-268 CNS
[11] = test system: LXFL 529 NSCLC
[12] = test system: SK-MEL-5 melanoma
[13] = test system: K-562 leukemia
[14] = test system: DMS 273 small cell lung
[15] = test system: SF-295 CNS
[16] = test system: HL-60(TB) leukemia
[17] = test system: SF-539 CNS
[18] = test system: DMS 114 small cell lung
[19] = test system: UACC-257 melanoma
[20] = test system: ACHN renal
[21] = test system: HT29 colon
[22] = test system: TK-10 renal
[23] = test system: HOP-92 NSCLC
[24] = test system: OVCAR-4 ovarian
[25] = test system: SNB-19 CNS
[26] = test system: HOP-62 NSCLC
[27] = test system: HCT-15 colon
[28] = test system: SK-MEL-28 melanoma
[29] = test system: U251 CNS
[30] = test system: RPMI-8226 leukemia
[31] = test system: MOLT-4 leukemia
[32] = test system: NCI-H460 lung
[33] = test system: SNB-78 CNS
[34] = test system: CAKI-1 renal
[35] = test system: CCRF-CEM leukemia
[36] = test system: M19-MEL melanoma
[37] = test system: SW-620 colon
[38] = test system: OVCAR-5 ovarian
[39] = test system: NCI-H23 lung
[40] = test system: EKVX NSCLC
[41] = test system: XF 498 CNS
[42] = test system: A549 NSCLC
[43] = test system: DLD-1 colon
[44] = test system: KM20L2 colon
[45] = test system: LOX IMVI melanoma
[46] = test system: UO-31 renal
[47] = test system: NCI-H226 lung
[48] = test system: KM12 colon
[49] = test system: RXF 393 renal
[50] = test system: IGROV1 ovarian
[51] = test system: SN12C renal
[52] = test system: OVCAR-3 ovarian
[53] = test system: HCT-116 colon
[54] = test system: M14 melanoma
[55] = test system: HCC-2998 colon
[56] = test system: SK-OV-3 ovarian
[57] = test system: SK-MEL-2 melanoma
[58] = test system: SR leukemia

SMILES: COc1cc(/C=C/c2cccnc2)cc(OC)c1OC
- TGI [1]: > 100 µM
- TGI [2]: > 100 µM
- TGI [3]: > 100 µM
- TGI [4]: > 100 µM
- TGI [5]: > 100 µM
- TGI [6]: > 100 µM
- TGI [7]: > 100 µM
- TGI [8]: > 100 µM
- TGI [9]: > 100 µM
- TGI [10]: > 100 µM
- TGI [11]: > 100 µM
- TGI [12]: > 100 µM
- TGI [13]: > 100 µM
- TGI [14]: > 100 µM
- TGI [15]: > 100 µM
- TGI [16]: > 100 µM
- TGI [17]: > 100 µM
- TGI [18]: > 100 µM
- TGI [19]: > 100 µM
- TGI [20]: > 100 µM
- TGI [21]: > 100 µM
- TGI [22]: > 100 µM
- TGI [23]: > 100 µM
- TGI [24]: > 100 µM
- TGI [25]: > 100 µM
- TGI [26]: > 100 µM
- TGI [27]: > 100 µM
- TGI [28]: > 100 µM
- TGI [29]: > 100 µM
- TGI [30]: > 100 µM
- TGI [31]: > 100 µM
- TGI [32]: > 100 µM
- TGI [33]: > 100 µM
- TGI [34]: > 100 µM
- TGI [35]: > 100 µM
- TGI [36]: > 100 µM
- TGI [37]: > 100 µM
- TGI [38]: > 100 µM
- TGI [39]: > 100 µM
- TGI [40]: > 100 µM
- TGI [41]: > 100 µM
- TGI [42]: > 100 µM
- TGI [43]: > 100 µM
- TGI [44]: > 100 µM
- TGI [45]: > 100 µM
- TGI [46]: > 100 µM
- TGI [47]: > 100 µM
- TGI [48]: > 100 µM
- TGI [49]: > 100 µM
- TGI [50]: > 100 µM
- TGI [51]: > 100 µM
- TGI [52]: > 100 µM
- TGI [53]: > 100 µM
- TGI [54]: > 100 µM

SMILES: CCC(C)NC1=C(NC(C)=O)C(=O)c2ccccc2C1=O (configuration not stated)
- TGI [55]: > 75 µM
- TGI [1]: > 75 µM
- TGI [2]: > 75 µM
- TGI [3]: > 75 µM
- TGI [5]: > 7.5 µM
- TGI [6]: > 75 µM
- TGI [7]: > 75 µM
- TGI [8]: > 75 µM
- TGI [9]: > 75 µM
- TGI [10]: > 75 µM
- TGI [11]: > 75 µM
- TGI [12]: > 75 µM
- TGI [13]: > 75 µM
- TGI [14]: > 75 µM
- TGI [15]: > 75 µM
- TGI [56]: > 75 µM
- TGI [16]: 43.1 µM
- TGI [17]: > 75 µM
- TGI [18]: > 75 µM
- TGI [19]: > 75 µM
- TGI [20]: > 75 µM
- TGI [21]: > 75 µM
- TGI [22]: > 75 µM
- TGI [23]: > 75 µM
- TGI [24]: > 75 µM
- TGI [25]: > 75 µM
- TGI [26]: > 75 µM
- TGI [27]: > 75 µM
- TGI [28]: > 75 µM
- TGI [29]: > 75 µM
- TGI [30]: 37.9 µM
- TGI [31]: > 75 µM
- TGI [32]: > 75 µM
- TGI [33]: > 75 µM
- TGI [34]: > 75 µM
- TGI [35]: > 75 µM
- TGI [36]: > 75 µM
- TGI [57]: > 75 µM
- TGI [37]: > 75 µM
- TGI [38]: > 75 µM
- TGI [39]: > 75 µM
- TGI [40]: > 75 µM
- TGI [41]: > 75 µM
- TGI [42]: > 75 µM
- TGI [43]: > 75 µM
- TGI [44]: > 75 µM
- TGI [45]: 40 µM
- TGI [46]: > 75 µM
- TGI [47]: > 75 µM
- TGI [48]: > 75 µM
- TGI [49]: > 75 µM
- TGI [50]: > 75 µM
- TGI [51]: > 75 µM
- TGI [52]: > 75 µM
- TGI [53]: > 75 µM
- TGI [54]: > 75 µM

SMILES: Cc1nc2nnnn2c2c1C(=O)Nc1ccccc1N2
- TGI [55]: > 100 µM
- TGI [1]: > 100 µM
- TGI [2]: > 100 µM
- TGI [3]: > 100 µM
- TGI [4]: > 100 µM
- TGI [5]: > 100 µM
- TGI [7]: > 100 µM
- TGI [8]: > 100 µM
- TGI [9]: > 100 µM
- TGI [10]: > 100 µM
- TGI [11]: > 100 µM
- TGI [13]: > 100 µM
- TGI [14]: > 100 µM
- TGI [15]: > 100 µM
- TGI [56]: > 100 µM
- TGI [16]: > 100 µM
- TGI [17]: > 100 µM
- TGI [18]: > 100 µM
- TGI [19]: > 100 µM
- TGI [20]: > 100 µM
- TGI [21]: > 100 µM
- TGI [22]: > 100 µM
- TGI [23]: > 100 µM
- TGI [25]: > 100 µM
- TGI [26]: > 100 µM
- TGI [28]: > 100 µM
- TGI [29]: > 100 µM
- TGI [30]: > 100 µM
- TGI [31]: > 100 µM
- TGI [32]: > 100 µM
- TGI [58]: > 100 µM
- TGI [33]: > 100 µM
- TGI [35]: > 100 µM
- TGI [36]: > 100 µM
- TGI [57]: > 100 µM
- TGI [37]: > 100 µM
- TGI [39]: > 100 µM
- TGI [40]: > 100 µM
- TGI [41]: > 100 µM
- TGI [42]: > 100 µM
- TGI [43]: > 100 µM
- TGI [44]: > 100 µM
- TGI [45]: > 100 µM
- TGI [46]: > 100 µM
- TGI [47]: > 100 µM
- TGI [48]: > 100 µM
- TGI [49]: > 100 µM
- TGI [50]: > 100 µM
- TGI [51]: > 100 µM
- TGI [52]: > 100 µM
- TGI [53]: > 100 µM
- TGI [54]: > 100 µM

Reference: PubChem BioAssay (NCI)
